Results on 22 compounds are retold here after patent US11352340B2, “Pyridine and pyridimine compounds as PI3K-gamma inhibitors” (Incyte Corporation, priority 2016, dated 2022).

Where a name gives a salt, the structure may show the parent alone.

Test [1] deals with PI3Kδ (p110δ/p85α) Recombinant Human Protein (Homo sapiens (Human), UniProt O00329). Nature of the test: PI3Kδ Scintillation Proximity Assay. The test is classed as biochemical. Particulars: read-out: PI3K-delta SPA IC50. From the text:
Example C. PI3Kδ Scintillation Proximity Assay
[γ-^33P]ATP (10 mCi/mL) and Wheat Germ Agglutinin (WGA) YSi SPA Scintillation Beads was purchased from Perkin-Elmer (Waltham, Mass.). Lipid kinase substrate, D-myo-Phosphatidylinositol 4,5-bisphosphate (PtdIns(4,5)P2)D (+)-sn-1,2-di-O-octanoylglyceryl, 3-O-phospho linked (PIP2), CAS 204858-53-7, was purchased from Echelon Biosciences (Salt Lake City, Utah). PI3Kδ (p110δ/p85α) Recombinant Human Protein was purchased from Eurofins (St Charles, Mo.). ATP, MgCl2, DTT, EDTA, MOPS and CHAPS were purchased from Sigma-Aldrich (St. Louis, Mo.).
(§1) The kinase reaction was conducted in polystyrene 384-well Greiner Bio-one white plate from Thermo Fisher Scientific in a final volume of 25 μL. Inhibitors were first diluted serially in DMSO and added to the plate wells before the addition of other reaction components. The final concentration of DMSO in the assay was 2%. The PI3Kδ assay was carried out at room temperature in 20 mM MOPS, pH 6.7, 10 mM MgCl2, 5 mM DTT and CHAPS 0.03%. Reactions were initiated by the addition of ATP, the final reaction mixture consisted of 20 μM PIP2, 2 μM ATP, 0.5 μCi [γ-^33P] ATP, 3.4 nM PI3Kδ. Reactions were incubated for 120 min and terminated by the addition of 40 μL SPA beads suspended in quench buffer: 163 mM potassium phosphate pH 7.8, 20% glycerol, 25 mM EDTA. The final concentration of SPA beads is 1.0 mg/mL. After the plate sealing, plates were shaken overnight at room temperature and centrifuged at 1500 rpm for 10 min, the radioactivity of the product was determined by scintillation counting on Topcount (Perkin-Elmer). IC50 determination was performed by fitting the curve of percent of the solvent control activity versus the log of the inhibitor concentration using the GraphPad Prism 6.0 software.

Test [2] concerns the target PI3Kγ (p110γ) Recombinant Human Protein (Homo sapiens (Human), UniProt P48736). Nature of the test: PI3K-γ Scintillation Proximity Assay. The test is classed as biochemical. The conditions noted are these: read-out: PI3K-gamma SPA IC50.
Source text: Example B. PI3K-γ Scintillation Proximity Assay
[γ-^33P]ATP (10 mCi/mL) and Wheat Germ Agglutinin (WGA) YSi SPA Scintillation Beads was purchased from Perkin-Elmer (Waltham, Mass.). Lipid kinase substrate, D-myo-Phosphatidylinositol 4,5-bisphosphate (PtdIns(4,5)P2)D (+)-sn-1,2-di-O-octanoylglyceryl, 3-O-phospho linked (PIP2), CAS 204858-53-7, was purchased from Echelon Biosciences (Salt Lake City, Utah). PI3Kγ (p110γ) Recombinant Human Protein was purchased from Life technology (Grand Island, N.Y.). ATP, MgCl2, DTT, EDTA, MOPS and CHAPS were purchased from Sigma-Aldrich (St. Louis, Mo.).
as §1, with “PI3Kγ” for “PI3Kδ”, “13” for “3.4”, “PI3Kγ.” for “PI3Kδ.”
For orientation: SPA uses beads or plates that emit light when radiolabelled molecules are held near them.

Sequence of PI3Kδ (p110δ/p85α) Recombinant Human Protein (O00329 whole entry): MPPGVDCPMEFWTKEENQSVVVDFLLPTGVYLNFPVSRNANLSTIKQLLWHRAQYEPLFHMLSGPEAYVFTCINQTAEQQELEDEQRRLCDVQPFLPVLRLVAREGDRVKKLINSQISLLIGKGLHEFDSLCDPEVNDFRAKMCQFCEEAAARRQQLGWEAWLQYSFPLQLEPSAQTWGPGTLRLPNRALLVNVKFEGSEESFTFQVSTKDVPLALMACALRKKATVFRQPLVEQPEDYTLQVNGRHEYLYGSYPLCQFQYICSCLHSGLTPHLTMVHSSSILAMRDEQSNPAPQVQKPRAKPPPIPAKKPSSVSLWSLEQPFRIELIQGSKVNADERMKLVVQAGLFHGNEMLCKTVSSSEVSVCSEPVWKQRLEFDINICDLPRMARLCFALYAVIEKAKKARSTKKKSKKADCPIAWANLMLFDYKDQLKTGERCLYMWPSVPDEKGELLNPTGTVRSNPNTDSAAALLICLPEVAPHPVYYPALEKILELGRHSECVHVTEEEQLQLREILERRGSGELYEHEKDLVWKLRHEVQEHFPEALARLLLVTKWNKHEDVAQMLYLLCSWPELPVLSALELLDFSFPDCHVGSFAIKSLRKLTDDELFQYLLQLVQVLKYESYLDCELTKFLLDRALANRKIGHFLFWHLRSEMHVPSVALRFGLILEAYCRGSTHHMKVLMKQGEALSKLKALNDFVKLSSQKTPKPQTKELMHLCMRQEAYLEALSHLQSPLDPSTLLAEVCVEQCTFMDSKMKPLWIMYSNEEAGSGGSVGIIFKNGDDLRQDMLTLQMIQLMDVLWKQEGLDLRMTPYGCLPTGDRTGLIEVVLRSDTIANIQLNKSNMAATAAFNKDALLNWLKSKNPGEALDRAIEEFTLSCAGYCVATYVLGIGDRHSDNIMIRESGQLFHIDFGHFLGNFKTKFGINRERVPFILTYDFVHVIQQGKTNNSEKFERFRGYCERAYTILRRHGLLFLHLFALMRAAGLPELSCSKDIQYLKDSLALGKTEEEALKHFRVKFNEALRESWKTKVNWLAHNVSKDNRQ
Sequence of PI3Kδ (p110δ/p85α) Recombinant Human Protein (P27986 whole entry partner): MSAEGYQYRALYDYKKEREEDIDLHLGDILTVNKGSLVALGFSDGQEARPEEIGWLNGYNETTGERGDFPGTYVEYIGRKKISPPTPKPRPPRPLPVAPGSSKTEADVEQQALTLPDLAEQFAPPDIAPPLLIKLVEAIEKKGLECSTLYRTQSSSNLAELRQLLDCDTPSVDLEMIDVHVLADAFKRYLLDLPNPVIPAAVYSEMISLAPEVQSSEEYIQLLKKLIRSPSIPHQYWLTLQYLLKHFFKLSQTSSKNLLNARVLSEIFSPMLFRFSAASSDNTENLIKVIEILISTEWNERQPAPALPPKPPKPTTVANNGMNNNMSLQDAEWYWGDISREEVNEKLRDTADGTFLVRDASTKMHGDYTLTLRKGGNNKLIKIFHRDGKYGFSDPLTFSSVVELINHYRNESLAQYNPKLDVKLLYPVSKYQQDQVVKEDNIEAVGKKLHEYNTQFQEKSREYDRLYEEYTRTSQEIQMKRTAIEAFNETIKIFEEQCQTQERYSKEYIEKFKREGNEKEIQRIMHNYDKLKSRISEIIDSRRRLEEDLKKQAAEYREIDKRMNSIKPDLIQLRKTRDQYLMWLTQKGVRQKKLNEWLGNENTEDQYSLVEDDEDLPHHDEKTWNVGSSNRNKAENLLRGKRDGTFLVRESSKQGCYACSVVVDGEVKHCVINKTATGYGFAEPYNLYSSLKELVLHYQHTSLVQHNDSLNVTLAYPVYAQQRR
Sequence of PI3Kγ (p110γ) Recombinant Human Protein (P48736 whole entry): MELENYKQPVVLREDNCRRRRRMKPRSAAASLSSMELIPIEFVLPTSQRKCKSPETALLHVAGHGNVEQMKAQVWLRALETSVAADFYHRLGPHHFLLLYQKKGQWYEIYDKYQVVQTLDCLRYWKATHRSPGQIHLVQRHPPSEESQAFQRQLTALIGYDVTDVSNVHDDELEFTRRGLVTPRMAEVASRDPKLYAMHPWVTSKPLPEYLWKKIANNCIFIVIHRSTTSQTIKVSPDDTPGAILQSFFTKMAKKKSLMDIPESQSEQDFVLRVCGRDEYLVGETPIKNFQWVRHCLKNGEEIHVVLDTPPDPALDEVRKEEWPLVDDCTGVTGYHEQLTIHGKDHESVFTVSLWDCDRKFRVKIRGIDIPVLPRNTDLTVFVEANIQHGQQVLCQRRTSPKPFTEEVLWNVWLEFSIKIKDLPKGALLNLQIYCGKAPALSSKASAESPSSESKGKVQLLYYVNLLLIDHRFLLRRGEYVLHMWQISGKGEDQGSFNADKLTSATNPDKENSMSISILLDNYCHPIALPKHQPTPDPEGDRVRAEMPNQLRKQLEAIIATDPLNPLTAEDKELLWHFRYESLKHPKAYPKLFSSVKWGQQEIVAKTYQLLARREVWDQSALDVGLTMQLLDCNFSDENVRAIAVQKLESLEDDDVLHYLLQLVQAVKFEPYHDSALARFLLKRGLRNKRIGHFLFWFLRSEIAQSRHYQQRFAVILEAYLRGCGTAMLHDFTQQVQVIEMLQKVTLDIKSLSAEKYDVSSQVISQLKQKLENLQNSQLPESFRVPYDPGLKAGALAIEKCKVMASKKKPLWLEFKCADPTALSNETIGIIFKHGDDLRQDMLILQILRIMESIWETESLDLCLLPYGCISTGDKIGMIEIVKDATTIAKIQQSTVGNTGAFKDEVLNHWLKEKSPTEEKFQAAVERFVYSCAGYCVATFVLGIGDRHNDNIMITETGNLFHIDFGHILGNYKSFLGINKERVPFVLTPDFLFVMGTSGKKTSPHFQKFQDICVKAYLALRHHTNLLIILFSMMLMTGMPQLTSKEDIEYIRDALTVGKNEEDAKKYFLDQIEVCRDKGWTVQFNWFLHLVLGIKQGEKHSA

For `COc1ccccc1Nc1nc(-c2cc(-c3cncc(N4CCOCC4)c3)ccn2)[nH]c1C` [Example 307, N-(2-Methoxyphenyl)-5-methyl-2-(5-morpholin-4-yl-3,4′-bipyridin-2′-yl)-1H-imidazol-4-amine Trifluoroacetate Salt], the IC50 in test [1] is at most 50 nM; in test [2], at most 500 nM.
Regarding `Cc1[nH]c(-c2cc(-c3cncc(N4CCOCC4)c3)ccn2)nc1CNC(C)C` [Example 285, N-{[5-Methyl-2-(5-morpholin-4-yl-3,4′-bipyridin-2′-yl)-1H-imidazol-4-yl]methyl}propan-2-amine], the IC50 in test [1] was at most 500 nM; in test [2] it was above 500 nM.
For `COCCNCc1nc(-c2cc(-c3cncc(N4CCOCC4)c3)ccn2)[nH]c1C` [Example 290, 2-Methoxy-N-{[5-methyl-2-(5-morpholin-4-yl-3,4′-bipyridin-2′-yl)-1H-imidazol-4-yl]methyl}ethanamine], in that order: at most 100 nM and above 500 nM.
Regarding `CNC(=O)CCn1cc(-c2ccnc(-c3ncc(-c4ccccc4)[nH]3)c2)cn1` [Example 58, N-Methyl-3-(4-(2-(5-phenyl-1H-imidazol-2-yl)pyridin-4-yl)-1H-pyrazol-1-yl)propanamide trifluoroacetate salt], the IC50 in test [1] and in test [2] was above 500 nM each time.
Take `Cc1nc(-c2cc(-c3cncc(N)c3)ccn2)[nH]c1C` [Example 129, 2′-(4,5-Dimethyl-1H-imidazol-2-yl)-3,4′-bipyridin-5-amine]: the IC50 was at most 500 nM in test [1] and at most 100 nM in test [2].
For `Cc1nc(-c2cc(-c3cncc(C(=O)N4CCC(O)CC4)c3)ccn2)[nH]c1C` [Example 177, 1-{[2′-(4,5-Dimethyl-1H-imidazol-2-yl)-3,4′-bipyridin-5-yl]carbonyl}piperidin-4-ol], the IC50 in test [1] and in test [2] was at most 100 nM each time.
Regarding `Cc1nc(-c2cc(-c3cncc(C4=CCN(C(=O)OC(C)(C)C)C4)c3)ccn2)[nH]c1C` [Example 235, tert-Butyl 3-[2′-(4,5-dimethyl-1H-imidazol-2-yl)-3,4′-bipyridin-5-yl]-2,5-dihydro-1H-pyrrole-1-carboxylate], the figures for the IC50 in test [1] and in test [2] were above 500 nM and at most 500 nM, respectively.
In the same order, the values of `Cc1[nH]c(-c2cc(-c3cncc(N4CCOCC4)c3)ccn2)nc1CN(C)C` [Example 289, N,N-Dimethyl-1-[5-methyl-2-(5-morpholin-4-yl-3,4′-bipyridin-2′-yl)-1H-imidazol-4-yl]methanamine] are at most 50 nM and above 500 nM.
Consider `Cc1nc(-c2cc(C3=CCCN(CC4CCOCC4)C3)ccn2)[nH]c1C` [Example 225, 2-(4,5-Dimethyl-1H-imidazol-2-yl)-4-(1-((tetrahydro-2H-pyran-4-yl)methyl)-1,2,5,6-tetrahydropyridin-3-yl)pyridine trifluoroacetate salt], for which the IC50 in test [1] and in test [2] was above 500 nM each time.
Regarding `CN1CCN(c2cncc(-c3ccnc(-c4ncc(-c5ccccc5)[nH]4)c3)c2)CC1` [Example 37, 5-(4-Methylpiperazin-1-yl)-2′-(5-phenyl-1H-imidazol-2-yl)-3,4′-bipyridin trifluoroacetate salt], the IC50 in test [1] and in test [2] was above 500 nM in each case.
For the compound `CCOC(=O)Nc1cncc(-c2ccnc(-c3ncc(-c4ccccc4)[nH]3)c2)c1` [Example 140, Ethyl 2′-(5-phenyl-1H-imidazol-2-yl)-3,4′-bipyridin-5-ylcarbamate Trifluoroacetate Salt], the IC50 in test [1] is at most 50 nM; in test [2], at most 100 nM.
Take `Cc1[nH]c(-c2cc(-c3cncc(N4CCOCC4)c3)ccn2)nc1C(=O)O` [Example 257, 5-Methyl-2-(5-morpholin-4-yl-3,4′-bipyridin-2′-yl)-1H-imidazole-4-carboxylic Acid Trifluoroacetate Salt]: the IC50 in test [1] is above 500 nM; in test [2] it was at most 500 nM.
In the same order, the values of `Cc1[nH]c(-c2cc(-c3cncc(N4CCOCC4)c3)ccn2)nc1CNC1CCOCC1` [Example 283, N-{[5-Methyl-2-(5-morpholin-4-yl-3,4′-bipyridin-2′-yl)-1H-imidazol-4-yl]methyl}tetrahydro-2H-pyran-4-amine] are at most 100 nM and above 500 nM.
In the same order, the values of `Cc1nc(-c2cc(-c3cncc(C(=O)N4CCC(O)(Cc5ccccc5)CC4)c3)ccn2)[nH]c1C` [Example 196, 4-Benzyl-1-{[2′-(4,5-dimethyl-1H-imidazol-2-yl)-3,4′-bipyridin-5-yl]carbonyl}piperidin-4-ol trifluoroacetate salt] are at most 50 nM and at most 500 nM.
As for `Cc1nc(-c2cc(-c3cncc(C(=O)NCC4CCOCC4)c3)ccn2)[nH]c1C` [Example 162, 2′-(4,5-Dimethyl-1H-imidazol-2-yl)-N-((tetrahydro-2H-pyran-4-yl)methyl)-3,4′-bipyridine-5-carboxamide trifluoroacetate salt], the IC50 in test [1] and in test [2] was at most 500 nM in each case.
Regarding `Cc1nc(-c2cc(-c3cncc(NC(=O)OC(C)(C)C)c3)ccn2)[nH]c1C` [Example 128, tert-Butyl [2′-(4,5-dimethyl-1H-imidazol-2-yl)-3,4′-bipyridin-5-yl]carbamate], the IC50 in test [1] and in test [2] was at most 500 nM in each case.
For `Cc1nc(-c2cc(-c3cncc(C(=O)N[C@@H](C)c4ccccc4)c3)ccn2)[nH]c1C` [Example 195, 2′-(4,5-Dimethyl-1H-imidazol-2-yl)-N-[(1S)-1-phenylethyl]-3,4′-bipyridine-5-carboxamide trifluoroacetate salt], the IC50 in test [1] and in test [2] was at most 500 nM in each case.
Regarding `c1ccc(-c2cnc(-c3cc(-c4ccc(N5CCOCC5)nc4)ccn3)[nH]2)cc1` [Example 41, 4-(2′-(5-Phenyl-1H-imidazol-2-yl)-3,4′-bipyridin-6-yl)morpholine trifluoroacetate salt], the figures for the IC50 in test [1] and in test [2] were at most 50 nM and above 500 nM, respectively.
In the same order, the values of `CS(=O)(=O)n1cc(-c2ccnc(-c3ncc(-c4ccccc4)[nH]3)c2)cn1` [Example 44, 4-(1-(Methylsulfonyl)-1H-pyrazol-4-yl)-2-(5-phenyl-1H-imidazol-2-yl)pyridine trifluoroacetate salt] are at most 500 nM and above 500 nM.
In the same order, the values of `Cc1nc(-c2cc(-c3cncc(C4=CCNC4)c3)ccn2)[nH]c1C` [Example 236, 5-(2,5-Dihydro-1H-pyrrol-3-yl)-2′-(4,5-dimethyl-1H-imidazol-2-yl)-3,4′-bipyridine] are above 500 nM and above 500 nM.
For `CC(=O)N1CCC(c2c[nH]c(-c3cc(-c4cnn(Cc5ccc(Cl)cc5)c4)ccn3)n2)C1` (centres unmarked) [Example 301, 2-[4-(1-Acetylpyrrolidin-3-yl)-1H-imidazol-2-yl]-4-[1-(4-chlorobenzyl)-1H-pyrazol-4-yl]pyridine trifluoroacetate salt], in that order: above 500 nM and at most 500 nM.
With `CNCc1nc(-c2cc(-c3cncc(N4CCOCC4)c3)ccn2)[nH]c1C` [Example 288, N-Methyl-1-[5-methyl-2-(5-morpholin-4-yl-3,4′-bipyridin-2′-yl)-1H-imidazol-4-yl]methanamine], the IC50 in test [1] is at most 500 nM; in test [2], above 500 nM.
